Measured values as given in patent publication US7713971B2, “1,2,4-triazine derivatives, preparation and use thereof in human therapy” (Pierre Fabre Medicament, priority 2005, dated 2010).
Like-named read-outs stand apart in the source and are kept apart here.

Tests used:
[1] = molecular target: T1, human PPARγ (Homo sapiens, UniProt P37231); experiment: Reporter gene transactivation, hPPAR-GAL4 gamma; format: cell-based; conditions: transfected Cos-7 cells, Gal-4 luciferase reporter, 24 hours treatment
T1 construct: expressed in transfected cells; host or cells: Cos-7 cells (ATCC, CRL-1651)
T1 sequence (P37231 238-503 limits assumed): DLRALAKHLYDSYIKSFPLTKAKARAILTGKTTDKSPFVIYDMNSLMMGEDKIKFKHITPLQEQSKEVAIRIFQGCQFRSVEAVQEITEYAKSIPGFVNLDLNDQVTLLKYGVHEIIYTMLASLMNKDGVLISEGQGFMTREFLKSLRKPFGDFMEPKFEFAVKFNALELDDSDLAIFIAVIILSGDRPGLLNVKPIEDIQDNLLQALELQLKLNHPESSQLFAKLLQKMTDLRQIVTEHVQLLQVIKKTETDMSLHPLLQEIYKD

[2] = molecular target: T2, human PPARα (Homo sapiens, UniProt Q07869); experiment: Reporter gene transactivation, hPPAR-GAL4 alpha; format: cell-based; conditions: transfected Cos-7 cells, Gal-4 luciferase reporter, 24 hours treatment
T2 construct: expressed in transfected cells; host or cells: Cos-7 cells (ATCC, CRL-1651)
T2 sequence (Q07869 239-466 limits assumed): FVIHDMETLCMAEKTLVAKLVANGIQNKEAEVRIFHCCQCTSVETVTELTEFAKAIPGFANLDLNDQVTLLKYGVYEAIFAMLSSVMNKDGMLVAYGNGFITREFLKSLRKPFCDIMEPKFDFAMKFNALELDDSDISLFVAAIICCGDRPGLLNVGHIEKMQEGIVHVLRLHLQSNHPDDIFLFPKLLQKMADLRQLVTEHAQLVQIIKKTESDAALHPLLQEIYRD

[3] = molecular target: T3, human PPARδ (Homo sapiens, UniProt Q03181); experiment: Reporter gene transactivation, hPPAR-GAL4 delta; format: cell-based; conditions: transfected Cos-7 cells, Gal-4 luciferase reporter, 24 hours treatment
T3 construct: expressed in transfected cells; host or cells: Cos-7 cells (ATCC, CRL-1651)
T3 sequence (Q03181 211-439 limits assumed): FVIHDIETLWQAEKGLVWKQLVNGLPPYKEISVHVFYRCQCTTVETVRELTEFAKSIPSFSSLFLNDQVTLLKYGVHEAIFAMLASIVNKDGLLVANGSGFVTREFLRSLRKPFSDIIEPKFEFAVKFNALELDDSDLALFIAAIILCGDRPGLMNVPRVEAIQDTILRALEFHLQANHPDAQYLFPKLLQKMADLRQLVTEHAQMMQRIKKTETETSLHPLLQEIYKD

[4] = system: insulin-resistant male rat (Ico: ZUCKER-fa/fa); experiment: Normalization of metabolic parameters (cholesterol, plasma triglycerides) in insulin-resistant rat; format: in vivo; conditions: 96 h, at 10 mg/kg, oral route, once per day for four days, Zucker fa/fa rat unfed 16-18 hours
Procedure: Normalization of metabolic parameters (cholesterol, plasma triglycerides) in an insulin-resistant male rat (Ico: ZUCKER-fa/fa), unfed for 16-18 hours, after treatment by oral route, once per day for four days, with the compounds to be evaluated or their administration vehicle.
These metabolic parameters are measured by spectrophotometry at the beginning and the end of each animal's treatment.

| Structure (SMILES) | EC50 [1] [µM] | EC50 [2] [µM] | EC50 [3] [µM] | change in vivo at 10 mg/kg ([4]; read-out: Plasma cholesterol) [%] | change in vivo at 10 mg/kg ([4]; read-out: Plasma triglycerides) [%] |
| --- | --- | --- | --- | --- | --- |
| CCOC(=O)C(C)(C)Oc1ccc(OCCCOc2nn(CCCC(F)(F)F)c(=O)n(CCCC(F)(F)F)c2=O)cc1 [Example 39, Ethyl 2-(4-{3-[3,5-dioxo-2,4-bis-(4,4,4-trifluoro-butyl)-2,3,4,5-tetrahydro-[1,2,4]triazin-6-yloxy]-propoxy}-phenoxy)-2-methyl-propionate] | 3 to 10 | 0.1 to 0.3 | ~3 |  |  |
| CCCCCCCn1nc(NCCOc2ccc(OC(C)(C)C(=O)OCC)cc2)c(=O)n(C)c1=O [Example 40, Ethyl 2-{4-[2-(2-heptyl-4-methyl-3,5-dioxo-2,3,4,5-tetrahydro-[1,2,4]triazin-6-ylamino)-ethoxy]-phenoxy}-2-methyl-propionate] | ~10 | 3 to 10 | > 10 |  |  |
| CCCCCCCn1c(=O)c(NCCCCc2cccc(OC(C)(C)C(=O)OCC)c2)nn(Cc2ccccc2)c1=O [Example 89, Ethyl 2-{3-[4-(2-benzyl-4-heptyl-3,5-dioxo-2,3,4,5-tetrahydro-[1,2,4]triazin-6-ylamino)-butyl]-phenoxy}-2-methyl-propionate] | 1 to 3 | > 10 | 3 to 10 |  |  |
| CCOC(=O)C(C)(C)Oc1cccc(OCCCOc2nn(CCCC(F)(F)F)c(=O)n(CCCC(F)(F)F)c2=O)c1 [Example 35, Ethyl 2-(3-{3-[3,5-dioxo-2,4-bis-(4,4,4-trifluoro-butyl)-2,3,4,5-tetrahydro-[1,2,4]triazin-6-yloxy]-propoxy}-phenoxy)-2-methyl-propionate] | 3 to 10 | 0.03 to 0.1 | ~10 |  |  |
| CCCCCCCn1c(=O)c(NCCCOc2ccc(OC(C)(C)C(=O)OCC)cc2)nn(CCCC(F)(F)F)c1=O [Example 48, Ethyl 2-(4-{3-[4-heptyl-3,5-dioxo-2-(4,4,4-trifluoro-butyl)-2,3,4,5-tetrahydro-[1,2,4]triazin-6-ylamino]-propoxy}-phenoxy)-2-methyl-propionate] | 0.3 to 1 | 0.3 to 1 | ~3 |  |  |

The next lines start with results.

| EC50 [1] [µM] | EC50 [2] [µM] | EC50 [3] [µM] | Structure (SMILES) | change in vivo at 10 mg/kg ([4]; read-out: Plasma cholesterol) [%] | change in vivo at 10 mg/kg ([4]; read-out: Plasma triglycerides) [%] |
| --- | --- | --- | --- | --- | --- |
|  | 1 to 3 | > 10 | CCOC(=O)C(C)(C)Oc1ccc(CCNc2nn(COCc3ccccc3)c(=O)n(COCc3ccccc3)c2=O)cc1 [Example 110, Ethyl 2-{4-[2-(2,4-bis-benzyloxymethyl-3,5-dioxo-2,3,4,5-tetrahydro-[1,2,4]triazin-6-ylamino)ethyl]-phenoxy}-2-methyl-propionate] |  |  |
|  | ~3 | > 10 | CCOC(=O)C(C)(C)Oc1ccc(CCN(CCCc2ccccc2)c2nn(C)c(=O)n(C)c2=O)cc1 [Example 115, Ethyl 2-(4-{2-[(2,4-dimethyl-3,5-dioxo-2,3,4,5-tetrahydro-[1,2,4]triazin-6-yl)-(3-phenylpropyl)-amino]-ethyl}-phenoxy)-2-methyl-propionate] |  |  |
|  | ~1 | 3 to 10 | CCCCCCCn1nc(NCCc2ccc(OC(C)(C)C(=O)OCC)cc2)c(=O)n(Cc2ccccc2)c1=O [Example 109, Ethyl 2-{4-[2-(4 benzyl-2-heptyl-3,5-dioxo-2,3,4,5-tetrahydro-[1,2,4]triazin-6-ylamino)-ethyl]-phenoxy}-2-methyl-propionate] |  |  |
|  | 16.9 | > 100 | CC(C)(Oc1ccc(C(=O)c2ccc(Cl)cc2)cc1)C(=O)O [Fenofibric acid, reference compound] |  |  |
|  | ~0.3 | > 10 | CCCCCCCn1c(=O)c(NCCc2ccc(SC(C)(C)C(=O)OCC)cc2)nn(C)c1=O [Example 122, Ethyl 2-{4-[2-(4-heptyl-2-methyl-3,5-dioxo-2,3,4,5-tetrahydro-[1,2,4]triazin-6-ylamino)-ethyl]-phenylsulfanyl}-2-methyl-propionate] | -22 | -35 |
|  | ~1 | > 10 | CCCCCCCn1c(=O)c(NCCc2ccc(OC(C)(C)C(=O)OCC)cc2)nn(C)c1=O [Example 106, Ethyl 2-{4-[2-(4-heptyl-2-methyl-3,5-dioxo-2,3,4,5-tetrahydro-[1,2,4]triazin-6-ylamino)-ethyl]-phenoxy}-2-methyl-propionate] |  |  |
